Measured values published in article PMC3280214, “Structure Based Discovery of Small Molecules to Regulate the Activity of Human Insulin Degrading Enzyme” (PLoS ONE, 2012).

Biological target: T1, mutant IDE (Gln363Ala) (Homo sapiens, UniProt P14735, Q363A)
T1 construct: made in house; host or cells: E. coli (BL21 inferred, as for the wild type)
T1 sequence (P14735 1-1019 Q363A): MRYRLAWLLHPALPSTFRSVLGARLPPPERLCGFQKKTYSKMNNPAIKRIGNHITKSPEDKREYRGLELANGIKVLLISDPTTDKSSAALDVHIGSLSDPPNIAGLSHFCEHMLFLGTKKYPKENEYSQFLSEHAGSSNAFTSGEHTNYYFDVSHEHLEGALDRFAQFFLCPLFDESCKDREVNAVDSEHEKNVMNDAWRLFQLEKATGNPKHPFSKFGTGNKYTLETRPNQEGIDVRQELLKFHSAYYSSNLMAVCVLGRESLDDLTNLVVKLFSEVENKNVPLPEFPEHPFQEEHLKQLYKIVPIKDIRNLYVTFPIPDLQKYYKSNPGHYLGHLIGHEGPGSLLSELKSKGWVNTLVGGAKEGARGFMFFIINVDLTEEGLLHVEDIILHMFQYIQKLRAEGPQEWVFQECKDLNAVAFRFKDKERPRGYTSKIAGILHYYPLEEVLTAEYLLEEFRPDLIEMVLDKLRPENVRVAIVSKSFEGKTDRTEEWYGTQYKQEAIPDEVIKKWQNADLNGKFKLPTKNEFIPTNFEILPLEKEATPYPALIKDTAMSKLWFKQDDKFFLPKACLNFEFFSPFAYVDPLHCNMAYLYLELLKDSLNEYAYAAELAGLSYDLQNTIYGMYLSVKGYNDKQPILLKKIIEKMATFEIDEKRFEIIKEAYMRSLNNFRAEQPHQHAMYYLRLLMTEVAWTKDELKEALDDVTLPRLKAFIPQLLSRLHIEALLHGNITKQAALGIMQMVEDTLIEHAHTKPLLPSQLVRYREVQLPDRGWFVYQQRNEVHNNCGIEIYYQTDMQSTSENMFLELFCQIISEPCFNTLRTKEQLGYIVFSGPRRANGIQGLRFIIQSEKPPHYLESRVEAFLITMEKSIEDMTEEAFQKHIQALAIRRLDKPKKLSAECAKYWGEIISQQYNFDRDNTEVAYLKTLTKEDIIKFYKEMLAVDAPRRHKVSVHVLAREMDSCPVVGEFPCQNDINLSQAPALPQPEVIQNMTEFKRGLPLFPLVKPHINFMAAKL
Test: FITC-insulin-mAb degradation by mutant IDE (Gln363Ala)
Assay type: biochemical
Settings: Gln363Ala vs wild type IDE; 20 µM D10
Text: Since D10 has been found as the strongest activator of IDE towards the proteolysis of insulin, we analyzed the binding site of the compound D10 for the further analysis. According to the computational results, D10 binds to Gln363 at the IDE exosite and His332 (Fig. 1D). We carried out site-directed mutagenesis by replacing these amino acids into Ala in order to verify that D10 indeed binds to this region via these amino acids. We first mutated Gln363 to Ala and then expressed and purified mutant protein through nickel resin. The effect of D10 on the proteolytic activity of mutant IDE (Gln363Ala) was measured towards FITC-insulin-mAb degradation. […] The activation was about 49-fold in the presence of D10 with wild type IDE (Fig. 2B). Although mutant IDE activity was less responsive to D10 compound compared to wild type IDE, it appeared as if D10 were interacting with IDE through […] and could enhance the activity of mutant IDE. […]
The utility of these novel compounds were tested on degradation of insulin by IDE. […] The proteolysis of insulin by IDE was monitored by measuring the changes in fluorescence, where the reaction was carried out with 100 nM of FITC- insulin-mAb and IDE (80 ng) in 100 µl KH2PO4 buffer at a pH of 7.3. […] The increase in fluorescence was monitored by using Fluoroskan Ascent FL microplate reader (Thermo).

Cc1nn(-c2ccccc2)c2nc(-c3cccc([N+](=O)[O-])c3)n3c4ccccc4nc3c2c1=O [Compound D10]
reduction of compound-enhanced activation with mutant IDE: 10 fold
